Assay results published in patent publication US8263638B2, “Dosing regimens for ion channel modulating compounds” (priority 2004, dated 2012).

How the values were obtained:
[1] = test system: atrial fibrillation of 3 to 72 h duration; assay: Randomized, double-blind, step-dose, placebo-controlled study in acute atrial fibrillation (Example 2); format: in vivo, human
Description: This was a randomized, double-blind, step-dose, placebo-controlled, parallel group study on humans. Fifty-six patients with atrial fibrillation of 3 to 72 h duration were randomized to one of two COMPOUND A dose groups or to placebo. The two COMPOUND A groups were RSD-1 (0.5 mg/kg followed by 1.0 mg/kg) or RSD-2 (2.0 mg/kg followed by 3.0 mg/kg), doses given by intravenous infusion over 10 min. The primary endpoint was termination of atrial fibrillation during a 10-min infusion or the subsequent 30-min. Secondary endpoints included the number of patients in sinus rhythm at 0.5, 1 and 24 h post-infusion and time to conversion to sinus rhythm. […] COMPOUND A converted acute atrial fibrillation to sinus rhythm.
Patients in this study had to have a rhythm of sustained atrial fibrillation (AF) with a duration of 3 to 72 h at the time of randomization. Patients were randomized to one of three groups and in each group received up to two 10-min intravenous infusions, separated by 30 min. Infusions were placebo followed by placebo, 0.5 mg/kg followed by 1.0 mg/kg COMPOUND A, or 2.0 […] COMPOUND A. The second dose in each group was administered only if AF was present 30 min after completion of the first dose. Doses for patients weighing>113 kg were capped as if the patient weight was 113 kg.
A Holter rhythm strip continuously monitored ECG, vital signs (blood pressure and heart rate, BP and HR, respectively) and O2 saturation were recorded every 2 min from the start of infusion to 5 min after, as well as at 15, 30, 60, 120, 240, 360, and 480 min and at discharge and one-week follow-up. Twelve-lead ECGs were obtained before dosing and every minute during infusion to 5 min after, as well as at 15, 30, 60, 120, 240, 360, and 480 min and at discharge, 24 h and one-week follow-up, and at the time of arrhythmia termination or significant rhythm changes. Venous blood samples were drawn for COMPOUND A plasma concentrations at 0, 15, 30, 120, 240, 480 min discharge and at AF termination or significant adverse events.
Fifty-five patients were evaluated for efficacy. Data are presented as mean±SD, median with interquartile range (IQR), all tests were performed as two sided and 95% confidence interval (CI) were produced; p<0.05 was considered statistically significant unless stated otherwise. Analysis of the relationship between termination of AF and treatment was performed using a chi-square analysis. In cases of small cell frequencies, the Fisher's exact test was used. A Cochran-Armitage test statistic with table scores was used to test the ascending dose evaluation of efficacy.
The time to conversion from the start of the first infusion was analyzed by the Cox regression method of event time analysis and one-way ANOVA. Assessment of the significance of time point values and mean change from baseline to each follow-up reading of ECG intervals (QRS, QT, QTc), BP, and HR were made within dose groups using paired t tests, and comparisons among dose groups were made using a one-way ANOVA.

[2] = test system: atrial fibrillation (AF duration 3 hr-7 days; 8-45 days); assay: Effect of age, gender and prior rate control medications on conversion of AF to SR (Example 4); format: in vivo, human; conditions: for Number of Pts Converted to Sinus Rhythm / Pts (%) Converted to Sinus Rhythm: AF Duration 3 hr-7 days
Description: Patients (pts) were block randomized in a double-blind, controlled study in a 2:1 ratio to receive COMPOUND A or placebo, stratified by AF duration (3 hr-7 days; 8-45 days). COMPOUND A (3 mg/kg), or similar appearing placebo, were infused over 10-min, followed by a second infusion if AF was not terminated (2 mg/kg or placebo). The proportion of pts with AF duration 3 hr-7 days who had treatment-induced conversion to SR within 90 min was the primary endpoint. Logistic regression was used to examine the effect of age (<65 vs ≧65), gender, and a prior use of rate control medications (beta blockers, calcium antagonists, digoxin).

[3] = End infusion 1, 0.5 and 1.0 mg/kg
[4] = End infusion 1, 2.0 and 3.0 mg/kg
[5] = End infusion 2, 0.5 and 1.0 mg/kg
[6] = End infusion 2, 2.0 and 3.0 mg/kg
[7] = 30 days following drug administration

COc1ccc(CCO[C@@H]2CCCC[C@H]2N2CC[C@@H](O)C2)cc1OC.Cl [COMPOUND A, (1R,2R)-2-[(3R)-hydroxypyrrolidinyl]-1-(3,4-dimethoxyphenethoxy)cyclohexane monohydrochloride]
net efficacy for conversion of recent onset AF ([1]; 61% to 5% (placebo)): 56% | median time for termination of AF from the start of the first infusion ([1]; COMPOUND A treatment groups (FIG. 1)): 11 min | HEART RATE [1, 3]: 104 ± 7 BPM | QRS [1, 3]: 86 ± 3 ms | QTc [1, 3]: 419 ± 6 ms | HEART RATE [1, 4]: 98 ± 5 BPM | QRS [1, 4]: 95 ± 3 ms | QTc [1, 4]: 449 ± 9 ms | HEART RATE [1, 5]: 107 ± 6 BPM | QRS [1, 5]: 90 ± 6 ms | QTc [1, 5]: 414 ± 11 ms | HEART RATE [1, 6]: 104 ± 6 BPM | QRS [1, 6]: 99 ± 5 ms | QTc [1, 6]: 447 ± 17 ms | cumulative AF termination within 30 min of infusion ([1]; RSD-1: 0.5 mg/kg followed by 1.0 mg/kg i.v.): 11% | patients in sinus rhythm (excluding those electrically cardioverted) at 24 h post infusion ([1]; RSD-1: 0.5 + 1.0 mg/kg): 56% | patients in sinus rhythm at 30 min post-infusion ([1]; RSD-1: 0.5 + 1.0 mg/kg): 11% | patients in sinus rhythm at 1 h post infusion ([1]; RSD-1: 0.5 + 1.0 mg/kg): 11% | median time to conversion to sinus rhythm from the start of the first infusion ([1]; RSD-1, five eventual responders): 166 min | patients reporting cardiac disorders (adverse events) ([1]; RSD-1 group): 22.2% | electrical cardioversion attempted within the study period (24 h) ([1]; RSD-1 treated): 50% | electrical cardioversion successful ([1]; RSD-1 treated): 100% | cumulative AF termination within 30 min of infusion ([1]; RSD-2: 2.0 mg/kg followed by 3.0 mg/kg i.v.): 61% | patients in sinus rhythm (excluding those electrically cardioverted) at 24 h post infusion ([1]; RSD-2: 2.0 + 3.0 mg/kg): 79% | patients in sinus rhythm at 30 min post-infusion ([1]; RSD-2: 2.0 + 3.0 mg/kg): 56% | patients in sinus rhythm at 1 h post infusion ([1]; RSD-2: 2.0 + 3.0 mg/kg): 53% | median time to conversion to sinus rhythm from the start of the first infusion ([1]; RSD-2, eleven responders): 14 min | mean heart rate ([1]; RSD-2 dose, T1=15 min (baseline mean 106)): 90 beats per min | median time to termination of AF after start of the first infusion ([1]; RSD-2 group): 11 min | patients reporting cardiac disorders (adverse events) ([1]; RSD-2 group): 16.7% | electrical cardioversion attempted within the study period (24 h) ([1]; RSD-2 treated): 22% | electrical cardioversion successful ([1]; RSD-2 treated): 100% | QT interval, first available ECG records after conversion to sinus rhythm ([1]; human, in vivo): 366 ± 28 ms | QTc interval, first available ECG records after conversion to sinus rhythm ([1]; human, in vivo): 427 ± 19 ms | drug related proarrhythmia ([1]; in vivo): no instances | effect on QTc or QRS intervals compared to placebo ([1]; infusion): did not significantly prolong | median time to conversion ([2]; 3 hr-7 day group (n=75)): 11 min | pts with serious adverse events (%) [2, 7]: 13% | pts with serious adverse events (number) [2, 7]: 29 | Number of Pts Converted to Sinus Rhythm ([2]; Men): 53 | Pts (%) Converted to Sinus Rhythm ([2]; Men): 52% | Number of Pts Converted to Sinus Rhythm ([2]; No Prior Rate Control Drugs): 19 | Pts (%) Converted to Sinus Rhythm ([2]; No Prior Rate Control Drugs): 53% | Number of Pts Converted to Sinus Rhythm ([2]; Prior Rate Control Drugs): 56 | Pts (%) Converted to Sinus Rhythm ([2]; Prior Rate Control Drugs): 51% | Number of Pts Converted to Sinus Rhythm ([2]; Women): 22 | Pts (%) Converted to Sinus Rhythm ([2]; Women): 51% | Number of Pts Converted to Sinus Rhythm ([2]; age <65): 49 | Pts (%) Converted to Sinus Rhythm ([2]; age <65): 56% | Number of Pts Converted to Sinus Rhythm ([2]; age ≧65): 26 | Pts (%) Converted to Sinus Rhythm ([2]; age ≧65): 46% | drug-related Torsades de Pointes ([2]; in vivo): No cases | patients converted to SR ([2]; primary end-point group, AF 3 hr-7 days, 3 mg/kg then 2 mg/kg, within 90 min): 52%
